According to patent publication US9540664B2, “Systems and methods for improving ethanol yield” (POET Research, Inc, priority 2011, dated 2017):
Where two headings read alike, the source gives them in different places.

What was measured:
yeast [1] = tested on: yeast
Method: The entire experiment was conducted in duplicate.
In this experiment, corn that was ground using a hammer mill to >90% fines was obtained from a nearby biorefinery. […] The slurry (˜70 mL) was prepared by weighing out the appropriate amount of corn and water into each individual reactor. Lactoside247™ was added at 2.5 ppm to prevent any lactic acid bacterial contamination. Urea was added ˜0.24 g/L (4 mM) for a nitrogen source.
A raw starch hydrolyzing enzyme blend was added at 0.2 g/L. Everything was added to the reactor in such a way that the final volume in the reactor was 70 mL. […] (88° F.). […] (82° F.). Samples were withdrawn at 0, 24, 48, 72, and 88 hr of fermentation and analyzed for sugars, glycerol, organic acids and ethanol using HPLC.
About 4 mL of sample was withdrawn at each time point. These samples were centrifuged at 4500 rpm for 2 min. The supernatant was then filtered through a 0.2 μpore size filter into HPLC vials. […] An aliquot (5 μL) of the sample was injected by the auto-injector onto a reverse phase column (HPX-87H from BioRad Laboratories) maintained at 50° C. Aqueous sulfuric acid at 0.005M was used as the mobile phase (eluent). […] The components (sugars, organic acids, and ethanol) were identified and quantified using Waters Empower software.

yeast [2] = conditions: 20% w/v sucrose
Method: For this example, a laboratory media with sucrose was used. The media used was Yeast extract-Peptone (YP) broth supplemented with 20% w/v (200 g/L) sucrose. An acetic acid dose response (at 500, 1000, 1500, 2000, 2500, and 3000 ppm) was conducted. Control with no added acetic acid was also included. The fermenters were pH adjusted to 4.5 and after yeast inoculation the fermentations were carried out for 30 hours at 32° C. After 30 h, samples were withdrawn and analyzed for sugars, organic acids, and ethanol. Samples were also withdrawn at 24 h and yeast growth was monitored by optical density measurement at 600 nm.

yeast [3] = conditions: 320 gal per 720,000 gal or 250 gal per 550,000 gal fermentor, added 1.5 hours into fill, 36% dry solids
Method: In commercial ethanol production facilities, acetic acid is thought to be inhibitory to yeast growth and fermentation. […] The dosage of acetic acid used is 320 gal per 720,000 gal fermentor or 250 gal per 550,000 gal fermentor and the acetic acid is added at 1.5 hours into fill of the fermentor (which would be about 1 hour after yeast inoculation from the yeast conditioning tank). […] A few batches were conducted with added acetic acid (primed) and a few batches were operated normally without additional acetic acid.

yeast [4] = conditions: 24 hours at 88° F.
Method: The samples were serially diluted and appropriate dilutions were plated on to Yeast extract-Malt extract (YM) agar plates. The plates were incubated at 30° C. and the colonies formed were counted after 48 h. The results were expressed as colony forming units (CFU) per mL.
Samples tested include a control with no acetic acid addition, and samples treated at 1200 ppm and 2400 ppm respectively.

CC(=O)O [acetic acid]
effect on ethanol titers (yeast [1]; 0.12% to 0.24% (1200-2400 ppm) acetic acid, initial pH 4.7 or 5.2): increased ethanol titers | effect on ethanol production (yeast [1]; highest concentration tested 0.37% w/v, especially at pH 4.2): inhibitory effect | effect on ethanol production (yeast [1]; initial pH 4.2): No major benefits | maximum reduction in glycerol (yeast [1]; initial pH 4.7, initial acetic acid 0.24% w/v): over 50% | highest ethanol titer (yeast [1]; initial pH 4.7, initial acetic acid 0.24% w/v, 36% dry solids, 88 hr fermentation): 20.5 % v/v | effect on ethanol conversion efficiency (yeast [2]; above 2500 ppm acetic acid, pH 4.5): inhibitory to fermentation | effect on ethanol conversion efficiency (yeast [2]; initial acetic acid between 2000 and 2500 ppm, pH 4.5, 30 hours at 32° C): stimulatory effect | ethanol production, primed vs no priming (yeast [3]): increased ethanol production | glycerol production, primed vs no priming (yeast [3]): decreases glycerol production significantly | reduction in cell counts (yeast [4]; initial acetic acid 1200 ppm): About 24% | reduction in cell counts (yeast [4]; initial acetic acid 2400 ppm): ~32%
